Source: PMC8887552 (The Journal of antibiotics, 2018)
Where no end group is shown, it is not given here.

How the values were obtained:
X. axonopodis = type: cell-based, Xanthomonas axonopodis; settings: OD 600 after 16 h of growth, serial two-fold dilutions, room temperature, n = 3
[1] = test system: sheep red blood cells (RBCs); type: cell-based

Sequence: LSLIAAAGKETIRQYLKNEIKKKGRKAVIAW [Syn-safencin]
- MIC (X. axonopodis): 8 µM
- hemolytic activity (in words) [1]: mild hemolytic activity
